Measurements from patent publication US20230265116A1, “DEGRADATION OF (EGFR) BY CONJUGATION OF EGFR INHIBITORS WITH E3 LIGASE LIGAND AND METHODS OF USE” (BEIGENE, LTD., priority 2020, published 2023).
Where two headings read alike, the source gives them in different places.

What was measured:
Format in all cases: cell-based
[1] = system: EGFR Del19/C797S (H1975-clone #23); assay: EGFR degradation HTRF assay, H1975-clone #23 DC cells; settings: for H1975 #23 DC Dmax (%): maximum percentage of degradation
How it was run: (§1)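 The test uses H1975 clonal lines carrying lentiviral mutant EGFR with endogenous copies removed, treated 16h at 37° C., 5% CO2. EGFR left in the lysate is quantified by HTRF, and DC50 is derived from an 8-dose curve starting at 10 uM final.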

[2] = molecular target: T1, EGFR L858R/C797S (BaF3 LC cells) (Homo sapiens, UniProt P00533, C797S/L858R); assay: EGFR degradation HTRF assay, BaF3 LC cells; settings: BaF3 LC, 16h treatment; for DC50: read-out: BaF3 LC DC50; for Dmax: maximum percentage of degradation, read-out: BaF3 LC Dmax (%)
T1 construct: expressed in transfected cells; host or cells: BaF3

[3] = system: EGFR Del19/T790M/C797S (H1975-clone #28); assay: EGFR degradation HTRF assay, H1975-clone #28 DTC cells
How it was run: as §1

[4] = molecular target: T2, EGFR L858R/T790M/C797S (BaF3-LTC cells) (Homo sapiens, UniProt P00533, C797S/L858R/T790M); assay: EGFR degradation HTRF assay, BaF3-LTC cells; settings: BaF3-LTC cells; for DC50: EGFR degradation, IC50 (DC50) from curve fit, read-out: DC50(nM) BaF3-LTC; for Dmax: maximum percentage of inhibition (degradation), read-out: Dmax (%) BaF3-LTC
T2 construct: expressed in transfected cells; host or cells: BaF3
How it was run: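 Cells treated 16 h at 37 °C, 5% CO2 in medium with 0.2% DMSO; top final concentration 10 uM, 5-fold dilution, 8 doses. Lysates read by HTRF (665/620 nm); degradation % versus DMSO high control, DC50 from four-parameter fit, Dmax as maximal degradation.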

[5] = H1975 #23 DC, 16h treatment, read-out: H1975 #23 DC DC50
[6] = H1975 # 28 DTC cells; EGFR degradation, IC50 (DC50) from curve fit; read-out: DC50(nM) H1975 # 28 DTC
[7] = H1975 # 28 DTC cells; maximum percentage of inhibition (degradation)

T1 sequence (P00533 25-1210 C797S/L858R): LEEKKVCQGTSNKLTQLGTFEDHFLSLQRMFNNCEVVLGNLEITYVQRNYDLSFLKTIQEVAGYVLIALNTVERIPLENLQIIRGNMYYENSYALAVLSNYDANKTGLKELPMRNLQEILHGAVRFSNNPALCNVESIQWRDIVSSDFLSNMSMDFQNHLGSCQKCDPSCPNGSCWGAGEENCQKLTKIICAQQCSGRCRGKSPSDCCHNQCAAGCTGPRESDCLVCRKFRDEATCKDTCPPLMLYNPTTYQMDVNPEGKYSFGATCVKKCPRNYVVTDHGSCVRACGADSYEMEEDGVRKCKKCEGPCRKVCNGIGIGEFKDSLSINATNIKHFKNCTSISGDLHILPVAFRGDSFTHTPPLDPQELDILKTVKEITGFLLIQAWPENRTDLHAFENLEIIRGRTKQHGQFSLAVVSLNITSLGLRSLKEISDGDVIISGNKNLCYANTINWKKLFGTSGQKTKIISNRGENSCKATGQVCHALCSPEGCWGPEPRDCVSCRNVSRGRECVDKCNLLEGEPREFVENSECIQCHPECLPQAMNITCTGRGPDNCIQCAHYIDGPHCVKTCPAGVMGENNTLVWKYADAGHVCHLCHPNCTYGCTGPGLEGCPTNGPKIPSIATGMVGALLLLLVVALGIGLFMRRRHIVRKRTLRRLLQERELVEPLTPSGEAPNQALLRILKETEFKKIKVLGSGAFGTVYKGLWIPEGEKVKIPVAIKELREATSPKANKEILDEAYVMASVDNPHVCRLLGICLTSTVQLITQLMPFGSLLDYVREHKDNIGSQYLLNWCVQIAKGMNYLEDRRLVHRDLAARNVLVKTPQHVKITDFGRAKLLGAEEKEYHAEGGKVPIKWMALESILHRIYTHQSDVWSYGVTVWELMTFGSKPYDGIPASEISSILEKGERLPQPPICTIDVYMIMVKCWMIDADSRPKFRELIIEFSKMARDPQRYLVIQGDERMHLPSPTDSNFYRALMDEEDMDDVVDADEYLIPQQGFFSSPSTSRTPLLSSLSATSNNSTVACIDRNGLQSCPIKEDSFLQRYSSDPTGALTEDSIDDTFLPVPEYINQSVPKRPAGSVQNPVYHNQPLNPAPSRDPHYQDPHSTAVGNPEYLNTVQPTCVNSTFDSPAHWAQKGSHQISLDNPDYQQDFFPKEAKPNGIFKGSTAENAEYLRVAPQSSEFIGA
T2 sequence (P00533 25-1210 T790M/C797S/L858R): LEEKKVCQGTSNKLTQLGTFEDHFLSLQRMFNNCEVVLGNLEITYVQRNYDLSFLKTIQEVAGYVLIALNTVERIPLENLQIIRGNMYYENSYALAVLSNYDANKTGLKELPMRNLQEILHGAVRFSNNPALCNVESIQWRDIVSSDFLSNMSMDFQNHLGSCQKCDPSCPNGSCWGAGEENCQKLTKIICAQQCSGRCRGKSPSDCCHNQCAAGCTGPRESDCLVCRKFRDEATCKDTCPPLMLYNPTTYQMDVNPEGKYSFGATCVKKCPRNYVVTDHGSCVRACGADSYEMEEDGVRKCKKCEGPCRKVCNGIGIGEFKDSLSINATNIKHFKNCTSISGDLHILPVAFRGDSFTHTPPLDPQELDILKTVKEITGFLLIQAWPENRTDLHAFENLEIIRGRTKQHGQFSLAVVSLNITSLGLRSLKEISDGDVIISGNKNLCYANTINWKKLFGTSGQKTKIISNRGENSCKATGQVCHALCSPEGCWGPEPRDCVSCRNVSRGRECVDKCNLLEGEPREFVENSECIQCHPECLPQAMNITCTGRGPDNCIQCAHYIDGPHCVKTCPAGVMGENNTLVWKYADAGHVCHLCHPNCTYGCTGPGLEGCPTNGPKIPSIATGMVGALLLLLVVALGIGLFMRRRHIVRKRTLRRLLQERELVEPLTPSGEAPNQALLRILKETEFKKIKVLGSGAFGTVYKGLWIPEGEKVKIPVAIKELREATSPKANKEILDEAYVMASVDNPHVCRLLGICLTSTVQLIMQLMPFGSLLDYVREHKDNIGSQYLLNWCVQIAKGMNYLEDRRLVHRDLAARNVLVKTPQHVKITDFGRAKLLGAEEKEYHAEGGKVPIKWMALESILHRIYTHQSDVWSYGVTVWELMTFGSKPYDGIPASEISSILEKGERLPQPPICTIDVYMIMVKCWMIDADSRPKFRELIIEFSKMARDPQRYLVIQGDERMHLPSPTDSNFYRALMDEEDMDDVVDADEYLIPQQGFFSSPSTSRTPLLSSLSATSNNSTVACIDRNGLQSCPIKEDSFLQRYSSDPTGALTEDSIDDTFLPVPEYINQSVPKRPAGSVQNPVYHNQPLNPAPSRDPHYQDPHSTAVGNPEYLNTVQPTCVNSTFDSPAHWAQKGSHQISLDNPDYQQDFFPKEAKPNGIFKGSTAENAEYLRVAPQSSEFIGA

DC50 [1, 5] [nM]	DC50 [2] [nM]	DC50 [3, 6] [nM]	DC50 [4] [nM]	Dmax [2] [%]	Dmax [4] [%]	SMILES	H1975 #23 DC Dmax (%) ([1]; 16h treatment)	Dmax (%) H1975 # 28 DTC [3, 7] [%]	DC50 ([1]; read-out: H1975 #23 DC DC50, 16h treatment) [nM]	DC50 ([3]; read-out: DC50(nM) H1975 # 28 DTC; H1975 # 28 DTC cells; EGFR degradation, IC50 (DC50) from curve fit) [nM]
3.59	15.8	2.8	12.1			CCc1cc(Nc2ncc(Br)c(Nc3ccc4nc(C)c(F)cc4c3P(C)(C)=O)n2)c(OC)cc1N1CCC(N2CCN(C(=O)[C@H]3CN(c4cc(F)c([C@H]5CCC(=O)NC5=O)c(F)c4)CC3(C)C)CC2)CC1 [Example 576, (R)-3-(4-((R)-4-(4-(1-(4-((5-bromo-4-((5-(dimethylphosphoryl)-3-fluoro-2-methylquinolin-6-yl)amino)pyrimidin-2-yl)amino)-2-ethyl-5-methoxyphenyl)piperidin-4-yl)piperazine-1-carbonyl)-3,3-dimethylpyrrolidin-1-yl)-2,6-difluorophenyl)piperidine-2,6-dione]	77.19	81.93		
5.49	57.2	0.404	3.02			CCOc1cc(N2CCC(N3CCN(CCc4cc(F)c([C@H]5CCC(=O)NC5=O)c(F)c4)CC3)CC2)c(CC)cc1Nc1ncc(Br)c(Nc2ccc3c(=O)n(C)ncc3c2P(C)(C)=O)n1 [Example 502, (R)-3-(4-(2-(4-(1-(4-((5-bromo-4-((5-(dimethylphosphoryl)-2-methyl-1-oxo-1,2-dihydrophthalazin-6-yl)amino)pyrimidin-2-yl)amino)-5-ethoxy-2-ethylphenyl)piperidin-4-yl)piperazin-1-yl)ethyl)-2,6-difluorophenyl)piperidine-2,6-dione]	75.93	88.96		
1.83	3.51	0.771	3.51	94	94.3	CCc1cc(Nc2ncc(Br)c(Nc3ccc4nc(C)ccc4c3P(C)(C)=O)n2)c(OC)cc1N1CCC(N2CCN(CCc3cccc4c3C(C)(C)C(=O)N4C3CCC(=O)NC3=O)CC2)CC1 (stereo not drawn) [Example 514, 3-(4-(2-(4-(1-(4-((5-bromo-4-((5-(dimethylphosphoryl)-2-methylquinolin-6-yl)amino)pyrimidin-2-yl)amino)-2-ethyl-5-methoxyphenyl)piperidin-4-yl)piperazin-1-yl)ethyl)-3,3-dimethyl-2-oxoindolin-1-yl)piperidine-2,6-dione]	76.66	66.48		
1.57	7.53	1.34	7			CCOc1cc(N2CCC(N3CCN(CCc4c(F)ccc5c4n(C)c(=O)n5C4CCC(=O)NC4=O)CC3)CC2)c(CC)cc1Nc1ncc(Br)c(Nc2ccc3nc(CC)ccc3c2P(C)(C)=O)n1 (stereo not drawn) [Example 503, 3-(4-(2-(4-(1-(4-((5-bromo-4-((5-(dimethylphosphoryl)-2-ethylquinolin-6-yl)amino)pyrimidin-2-yl)amino)-5-ethoxy-2-ethylphenyl)piperidin-4-yl)piperazin-1-yl)ethyl)-5-fluoro-3-methyl-2-oxo-2,3-dihydro-1H-benzo[d]imidazol-1-yl)piperidine-2,6-dione]	81.03	79.81		
5.64	46.5	1.62	6.19			CCOc1cc(N2CCC(N3CCN(CC4CN(c5cc(F)c([C@H]6CCC(=O)NC6=O)c(F)c5)C4)CC3)CC2)c(CC)cc1Nc1ncc(Br)c(Nc2ccc3c(=O)n(CC)ncc3c2P(C)(C)=O)n1 [Example 551, (R)-3-(4-(3-((4-(1-(4-((5-bromo-4-((5-(dimethylphosphoryl)-2-ethyl-1-oxo-1,2-dihydrophthalazin-6-yl)amino)pyrimidin-2-yl)amino)-5-ethoxy-2-ethylphenyl)piperidin-4-yl)piperazin-1-yl)methyl)azetidin-1-yl)-2,6-difluorophenyl)piperidine-2,6-dione]	84.14	90.57		
6.14	14.6	0.765	2.19	87.8	89.2	CCc1cc(Nc2ncc(Br)c(Nc3ccc4nc(NC(=O)C5CC5)ccc4c3P(C)(C)=O)n2)c(OC)cc1N1CCC(N2CCN(C(=O)[C@@H]3CCN(c4cc(F)c([C@H]5CCC(=O)NC5=O)c(F)c4)C3)CC2)CC1 [Example 587, N-(6-((5-bromo-2-((4-(4-(4-((R)-1-(4-((R)-2,6-dioxopiperidin-3-yl)-3,5-difluorophenyl)pyrrolidine-3-carbonyl)piperazin-1-yl)piperidin-1-yl)-5-ethyl-2-methoxyphenyl)amino)pyrimidin-4-yl)amino)-5-(dimethylphosphoryl)quinolin-2-yl)cyclopropanecarboxamide]	87.43	87.02		
7.2	50.8	1.86	12.9	73.4	88.7	CCOc1cc(N2CCC(N3CCN(CCc4cc(F)c(C5CCC(=O)NC5=O)c(F)c4)CC3)CC2)c(CC)cc1Nc1ncc(Br)c(Nc2ccc3nc(C)ccc3c2P(C)(C)=O)n1 (stereo not drawn) [Example 482, 3-(4-(2-(4-(1-(4-((5-bromo-4-((5-(dimethylphosphoryl)-2-methylquinolin-6-yl)amino)pyrimidin-2-yl)amino)-5-ethoxy-2-ethylphenyl)piperidin-4-yl)piperazin-1-yl)ethyl)-2,6-difluorophenyl)piperidine-2,6-dione]	70.91	69.65		
2.23	17.9	0.97	3.52			CCc1cc(Nc2ncc(Br)c(Nc3ccc4nc(C)c(F)cc4c3P(C)(C)=O)n2)c(OC)cc1N1CCC(N2CCN(C(=O)[C@@H]3CCN(c4cc(F)c([C@H]5CCC(=O)NC5=O)c(F)c4)C3)CC2)CC1 [Example 488, (R)-3-(4-((R)-3-(4-(1-(4-((5-bromo-4-((5-(dimethylphosphoryl)-3-fluoro-2-methylquinolin-6-yl)amino)pyrimidin-2-yl)amino)-2-ethyl-5-methoxyphenyl)piperidin-4-yl)piperazine-1-carbonyl)pyrrolidin-1-yl)-2,6-difluorophenyl)piperidine-2,6-dione]	67.73	84.91		
4.73	16.6	0.802	5.83			CCOc1cc(N2CCC(N3CCN(CCc4cc(F)c([C@H]5CCC(=O)NC5=O)c(F)c4)CC3)CC2)c(CC)cc1Nc1ncc(Br)c(Nc2cc(F)c3nc(CC)ccc3c2P(C)(C)=O)n1 [Example 486, (R)-3-(4-(2-(4-(1-(4-((5-bromo-4-((5-(dimethylphosphoryl)-2-ethyl-8-fluoroquinolin-6-yl)amino)pyrimidin-2-yl)amino)-5-ethoxy-2-ethylphenyl)piperidin-4-yl)piperazin-1-yl)ethyl)-2,6-difluorophenyl)piperidine-2,6-dione]	80.02	85.73		
3.11	37.3	2.43	16.4			CCOc1cc(N2CCC(N3CCN(CCc4cc(F)c([C@H]5CCC(=O)NC5=O)c(F)c4)CC3)CC2)c(CC)cc1Nc1ncc(Br)c(Nc2ccc3nc(CC)ncc3c2P(C)(C)=O)n1 [Example 460, (R)-3-(4-(2-(4-(1-(4-((5-bromo-4-((5-(dimethylphosphoryl)-2-ethylquinazolin-6-yl)amino)pyrimidin-2-yl)amino)-5-ethoxy-2-ethylphenyl)piperidin-4-yl)piperazin-1-yl)ethyl)-2,6-difluorophenyl)piperidine-2,6-dione]	82.75	86		

SMILES	DC50 [1, 5] [nM]	DC50 [2] [nM]	DC50 [3, 6] [nM]	DC50 [4] [nM]	Dmax [2] [%]	Dmax [4] [%]	H1975 #23 DC Dmax (%) ([1]; 16h treatment)	Dmax (%) H1975 # 28 DTC [3, 7] [%]	DC50 ([1]; read-out: H1975 #23 DC DC50, 16h treatment) [nM]	DC50 ([3]; read-out: DC50(nM) H1975 # 28 DTC; H1975 # 28 DTC cells; EGFR degradation, IC50 (DC50) from curve fit) [nM]
CCc1ncc2c(P(C)(C)=O)c(Nc3nc(Nc4cc(CC)c(N5CCC(N6CCN(CCc7ccc8c(c7)oc(=O)n8C7CCC(=O)NC7=O)CC6)CC5)cc4OC)ncc3Br)ccc2n1 (stereo not drawn) [Example 499, 3-(6-(2-(4-(1-(4-((5-bromo-4-((5-(dimethylphosphoryl)-2-ethylquinazolin-6-yl)amino)pyrimidin-2-yl)amino)-2-ethyl-5-methoxyphenyl)piperidin-4-yl)piperazin-1-yl)ethyl)-2-oxobenzo[d]oxazol-3(2H)-yl)piperidine-2,6-dione]		0.955		1.95			61.96	77.41	0.646	0.185
